In patent US20250213735A1, “NEUROPEPTIDE Y1 RECEPTOR (NPY1R) TARGETED THERAPEUTICS AND USES THEREOF” (Radionetics Oncology, Inc., priority 2023, published 2025) one finds Ki data, which are given here for 13 molecules.

Numbered stars: 1 amine (or outer) side, 2 acyl side, 3 side chain; on linkers, the order of the positions; unused ones are H or OH. Square brackets hold non-standard residues; d marks the D form. Peptide text beside a SMILES is read from it. * marks the point of attachment. dArg(Nω-CONH(CH2)2NHCOEt) = CCC(=O)NCCNC(=O)/N=C(/N)NCCC[C@@H](N)C(=O)O; DOTA = O=C(O)CN1CCN(CC(=O)O)CCN(CC(=O)*)CCN(CC(=O)O)CC1; X1 = O=C([C@H](c1ccc(OCCCN[*:1])cc1)N1Cc2ccccc2C1)[*:2]; NH(2,6-F2-4-OH-benzyl) = Oc1cc(F)c(CN*)c(F)c1; Sar = CNCC(=O)O Bounds are passed on as bounds.

Chain of hNPY1R (P25929 whole entry): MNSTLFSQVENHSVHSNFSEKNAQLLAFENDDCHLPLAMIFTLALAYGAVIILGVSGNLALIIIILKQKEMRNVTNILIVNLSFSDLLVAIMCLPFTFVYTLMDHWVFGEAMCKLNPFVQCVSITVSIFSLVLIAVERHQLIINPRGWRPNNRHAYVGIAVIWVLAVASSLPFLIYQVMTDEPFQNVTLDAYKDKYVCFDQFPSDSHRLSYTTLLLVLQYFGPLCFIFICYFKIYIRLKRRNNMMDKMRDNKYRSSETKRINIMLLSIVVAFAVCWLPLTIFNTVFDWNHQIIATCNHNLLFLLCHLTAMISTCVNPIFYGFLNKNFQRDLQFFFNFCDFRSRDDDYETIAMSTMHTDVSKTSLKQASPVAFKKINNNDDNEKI

This assay concerns the target hNPY1R (Homo sapiens (Human), UniProt P25929). Put plainly: NPY1R binding assay (SK-N-MC membrane, [125I]-Peptide YY competition).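 Further: bound radioligand separated by filtration over GF/C filter plates and counted, Ki obtained by non-linear regression.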 Particulars: crude SK-N-MC membranes endogenously expressing NPY1R; [125I]-Peptide YY (human) 0.05 nM; 120 min at room temperature; read-out: hNPY1R binding Ki.
Experimental: Crude membrane fractions are prepared from SK-N-MC cells endogenously expressing the NPY1R receptor. The cells are grown to 85-100% confluence on standard tissue culture dishes in Eagle's Minimum Essential Medium supplemented with 10% dialyzed FBS. To prepare membranes, cells are scraped and collected in 1× Dulbecco's phosphate buffered saline and then pelleted at 1000 RPM's. The cell pellet is reconstituted in membrane preparation buffer (20 mM HEPES, 6 mM MgCl2 and 1 mM EGTA, protease inhibitor tablets, pH 7.4) and placed in a cell disruption vessel at 1000 PSI for 30 minutes on ice. The pressurized contents are then released and spun down at 1000 RPMs and the supernatant is collected and further centrifuged at 15,000 RPMs to pellet the membranes. The membrane pellet is resuspended in membrane preparation buffer, snap frozen and stored at −80° C. for later use.
Assay contents are then filtered through unifilter GF/C microplates and washed with 9×400 μl of cold wash buffer (25 mM HEPES, 5 mM MgCl2, 1 mM CaCl2), 500 mM NaCl, 0.1% Tween-20, pH 7.4). Assay plates are read using a Top Count NXT and Ki values for compounds are determined using a GraphPad Prism 6 non-linear regression analysis.
As to `CCC(=O)NCCNC(=O)/N=C(/N)NCCC[C@@H](NC(=O)[C@H](c1ccccc1)N1Cc2cccc(NCCCNC(=O)C[C@H](O)C[C@H](O)CCNC(=O)CN3CCN(CC(=O)O)CCN(CC(=O)O)CCN(CC(=O)O)CC3)c2C1)C(=O)NCc1c(F)cc(O)cc1F` [compound 41, 2,2′,2″-(10-(2-(((3R,5R)-7-((3-((2-((1S,4R,Z)-9-amino-4-((2,6-difluoro-4-hydroxybenzyl)carbamoyl)-2,11,16-trioxo-1-phenyl-3,8,10,12,15-pentaazaoctadec-9-en-1-yl)isoindolin-4-yl)amino)propyl)amino)-3,5-dihydroxy-7-oxoheptyl)amino)-2-oxoethyl)-1,4,7,10-tetraazacyclododecane-1,4,7-triyl)triacetic acid], the inhibitory constant (Ki) – broadly, a dissociation constant, usually derived from enzyme kinetics or from competition with a known ligand – was less than 0.01 µM.
Regarding `CCC(=O)NCCNC(=O)/N=C(/N)NCCC[C@@H](NC(=O)[C@H](c1ccccc1)N1Cc2cccc(NCCCNC(=O)CCC(=O)NCCNC(=O)CN3CCN(CC(=O)O)CCN(CC(=O)O)CCN(CC(=O)O)CC3)c2C1)C(=O)NCc1c(F)cc(O)cc1F` [compound 42, 2,2′,2″-(10-(2-((2-(4-((3-((2-((1S,4R,Z)-9-amino-4-((2,6-difluoro-4-hydroxybenzyl)carbamoyl)-2,11,16-trioxo-1-phenyl-3,8,10,12,15-pentaazaoctadec-9-en-1-yl)isoindolin-4-yl)amino)propyl)amino)-4-oxobutanamido)ethyl)amino)-2-oxoethyl)-1,4,7,10-tetraazacyclododecane-1,4,7-triyl)triacetic acid], the Ki is less than 0.01 µM.
For `CCC(=O)NCCNC(=O)/N=C(/N)NCCC[C@@H](NC(=O)[C@H](c1ccc(OCCCNC(=O)CCC(=O)NCCOCCNC(=O)CN2CCN(CC(=O)O)CCN(CC(=O)O)CCN(CC(=O)O)CC2)cc1)N1Cc2ccccc2C1)C(=O)NCc1c(F)cc(O)cc1F` [compound 43, 2,2′,2″-(10-(17-(4-((1S,4R,Z)-9-amino-4-((2,6-difluoro-4-hydroxybenzyl)carbamoyl)-1-(isoindolin-2-yl)-2,11,16-trioxo-3,8,10,12,15-pentaazaoctadec-9-en-1-yl)phenoxy)-2,10,13-trioxo-6-oxa-3,9,14-triazaheptadecyl)-1,4,7,10-tetraazacyclododecane-1,4,7-triyl)triacetic acid], the Ki is less than 0.01 µM.
The result for `CCC(=O)NCCNC(=O)/N=C(/N)NCCC[C@@H](NC(=O)[C@H](c1ccc(OCCCNC(=O)CONC(=O)CCNC(=O)CN2CCN(CC(=O)O)CCN(CC(=O)O)CCN(CC(=O)O)CC2)cc1)N1Cc2ccccc2C1)C(=O)NCc1c(F)cc(O)cc1F` [compound 44, 2,2′,2″-(10-(14-(4-((1S,4R,Z)-9-amino-4-((2,6-difluoro-4-hydroxybenzyl)carbamoyl)-1-(isoindolin-2-yl)-2,11,16-trioxo-3,8,10,12,15-pentaazaoctadec-9-en-1-yl)phenoxy)-2,6,10-trioxo-8-oxa-3,7,11-triazatetradecyl)-1,4,7,10-tetraazacyclododecane-1,4,7-triyl)triacetic acid] reads less than 0.01 µM; that for `CCC(=O)NCCNC(=O)/N=C(/N)NCCC[C@@H](NC(=O)[C@H](c1ccc(OCCCNC(=O)NCCONC(=O)CN2CCN(CC(=O)O)CCN(CC(=O)O)CCN(CC(=O)O)CC2)cc1)N1Cc2ccccc2C1)C(=O)NCc1c(F)cc(O)cc1F` [compound 45, 2,2′,2″-(10-(12-(4-((1S,4R,Z)-9-amino-4-((2,6-difluoro-4-hydroxybenzyl)carbamoyl)-1-(isoindolin-2-yl)-2,11,16-trioxo-3,8,10,12,15-pentaazaoctadec-9-en-1-yl)phenoxy)-2,8-dioxo-4-oxa-3,7,9-triazadodecyl)-1,4,7,10-tetraazacyclododecane-1,4,7-triyl)triacetic acid], less than 0.01 µM.
Turning to `CCC(=O)NCCNC(=O)/N=C(/N)NCCC[C@@H](NC(=O)[C@H](c1ccc(OCCCNC(=O)CN(C)C(=O)CN(C)C(=O)CN(C)C(=O)CN2CCN(CC(=O)O)CCN(CC(=O)O)CCN(CC(=O)O)CC2)cc1)N1Cc2ccccc2C1)C(=O)NCc1c(F)cc(O)cc1F` [compound 46, 2,2′,2″-(10-(15-(4-((1S,4R,Z)-9-amino-4-((2,6-difluoro-4-hydroxybenzyl)carbamoyl)-1-(isoindolin-2-yl)-2,11,16-trioxo-3,8,10,12,15-pentaazaoctadec-9-en-1-yl)phenoxy)-3,6,9-trimethyl-2,5,8,11-tetraoxo-3,6,9,12-tetraazapentadecyl)-1,4,7,10-tetraazacyclododecane-1,4,7-triyl)triacetic acid] ({DOTA}-[Sar][Sar][Sar][X1][dArg(Nω-CONH(CH2)2NHCOEt)]-{NH(2,6-F2-4-OH-benzyl)}), the inhibition constant (Ki) was less than 0.01 µM.
Turning to `CCC(=O)NCCNC(=O)/N=C(/N)NCCC[C@@H](NC(=O)[C@H](c1ccc(OCCCNC(=O)CCNC(=O)CN2CCN(CC(=O)O)CCN(CC(=O)O)CCN(CC(=O)O)CC2)cc1)N1Cc2ccccc2C1)C(=O)NCc1c(F)cc(O)cc1F` [compound 47, 2,2′,2″-(10-(2-((3-((3-(4-((1S,4R,Z)-9-amino-4-((2,6-difluoro-4-hydroxybenzyl)carbamoyl)-1-(isoindolin-2-yl)-2,11,16-trioxo-3,8,10,12,15-pentaazaoctadec-9-en-1-yl)phenoxy)propyl)amino)-3-oxopropyl)amino)-2-oxoethyl)-1,4,7,10-tetraazacyclododecane-1,4,7-triyl)triacetic acid], the Ki was less than 0.01 µM.
Then `CCC(=O)NCCNC(=O)/N=C(/N)NCCC[C@@H](NC(=O)[C@H](c1ccc(OCCCNC(=O)[C@@H](CO)NC(=O)CCNC(=O)CN2CCN(CC(=O)O)CCN(CC(=O)O)CCN(CC(=O)O)CC2)cc1)N1Cc2ccccc2C1)C(=O)NCc1c(F)cc(O)cc1F` [compound 48, 2,2′,2″-(10-(2-((3-(((R)-1-((3-(4-((1S,4R,Z)-9-amino-4-((2,6-difluoro-4-hydroxybenzyl)carbamoyl)-1-(isoindolin-2-yl)-2,11,16-trioxo-3,8,10,12,15-pentaazaoctadec-9-en-1-yl)phenoxy)propyl)amino)-3-hydroxy-1-oxopropan-2-yl)amino)-3-oxopropyl)amino)-2-oxoethyl)-1,4,7,10-tetraazacyclododecane-1,4,7-triyl)triacetic acid], with less than 0.01 µM.
As for `CCC(=O)NCCNC(=O)/N=C(/N)NCCC[C@@H](NC(=O)[C@H](c1ccc(OCCCNC(=O)CCC(=O)NCCNC(=O)CCC(C(=O)O)N2CCN(CC(=O)O)CCN(CC(=O)O)CCN(CC(=O)O)CC2)cc1)N1Cc2ccccc2C1)C(=O)NCc1c(F)cc(O)cc1F` (stereo partly drawn) [compound 49, 2,2′,2″-(10-(4-((2-(4-((3-(4-((1S,4R,Z)-9-amino-4-((2,6-difluoro-4-hydroxybenzyl)carbamoyl)-1-(isoindolin-2-yl)-2,11,16-trioxo-3,8,10,12,15-pentaazaoctadec-9-en-1-yl)phenoxy)propyl)amino)-4-oxobutanamido)ethyl)amino)-1-carboxy-4-oxobutyl)-1,4,7,10-tetraazacyclododecane-1,4,7-triyl)triacetic acid], the inhibition constant (Ki) is less than 0.01 µM.
On to `CCC(=O)NCCNC(=O)/N=C(/N)NCCC[C@@H](NC(=O)[C@H](c1ccc(OCCCNC(=O)[C@@H](CC(N)=O)NC(=O)CCNC(=O)CN2CCN(CC(=O)O)CCN(CC(=O)O)CCN(CC(=O)O)CC2)cc1)N1Cc2ccccc2C1)C(=O)NCc1c(F)cc(O)cc1F` [compound 50, 2,2′,2″-(10-(2-((3-(((R)-4-amino-1-((3-(4-((1S,4R,Z)-9-amino-4-((2,6-difluoro-4-hydroxybenzyl)carbamoyl)-1-(isoindolin-2-yl)-2,11,16-trioxo-3,8,10,12,15-pentaazaoctadec-9-en-1-yl)phenoxy)propyl)amino)-1,4-dioxobutan-2-yl)amino)-3-oxopropyl)amino)-2-oxoethyl)-1,4,7,10-tetraazacyclododecane-1,4,7-triyl)triacetic acid], for which the inhibition constant Ki is less than 0.01 µM.
Then `CCC(=O)NCCNC(=O)/N=C(/N)NCCC[C@@H](NC(=O)[C@H](c1ccc(OCCCNC(=O)[C@@H](CC(N)=O)NC(=O)[C@@H](CO)NC(=O)CCNC(=O)CN2CCN(CC(=O)O)CCN(CC(=O)O)CCN(CC(=O)O)CC2)cc1)N1Cc2ccccc2C1)C(=O)NCc1c(F)cc(O)cc1F` [compound 51, 2,2′,2″-(10-((8R,11R)-11-(2-amino-2-oxoethyl)-16-(4-((1S,4R,Z)-9-amino-4-((2,6-difluoro-4-hydroxybenzyl)carbamoyl)-1-(isoindolin-2-yl)-2,11,16-trioxo-3,8,10,12,15-pentaazaoctadec-9-en-1-yl)phenoxy)-8-(hydroxymethyl)-2,6,9,12-tetraoxo-3,7,10,13-tetraazahexadecyl)-1,4,7,10-tetraazacyclododecane-1,4,7-triyl)triacetic acid], with less than 0.01 µM; and `CCC(=O)NCCNC(=O)/N=C(/N)NCCC[C@@H](NC(=O)[C@H](c1ccc(OCCCNC(=O)C[C@H]2NC(=O)[C@@H](CCNC(=O)CN3CCN(CC(=O)O)CCN(CC(=O)O)CCN(CC(=O)O)CC3)NC2=O)cc1)N1Cc2ccccc2C1)C(=O)NCc1c(F)cc(O)cc1F` [compound 52, 2,2′,2″-(10-(2-((2-((2R,5R)-5-(2-((3-(4-((1S,4R,Z)-9-amino-4-((2,6-difluoro-4-hydroxybenzyl)carbamoyl)-1-(isoindolin-2-yl)-2,11,16-trioxo-3,8,10,12,15-pentaazaoctadec-9-en-1-yl)phenoxy)propyl)amino)-2-oxoethyl)-3,6-dioxopiperazin-2-yl)ethyl)amino)-2-oxoethyl)-1,4,7,10-tetraazacyclododecane-1,4,7-triyl)triacetic acid], with less than 0.01 µM; and `CCC(=O)NCCNC(=O)/N=C(/N)NCCC[C@@H](NC(=O)[C@H](c1ccc(OCCCNC(=O)C[C@H](O)C[C@H](O)CCNC(=O)CCC(=O)NCCNC(=O)CN2CCN(CC(=O)O)CCN(CC(=O)O)CCN(CC(=O)O)CC2)cc1)N1Cc2ccccc2C1)C(=O)NCc1c(F)cc(O)cc1F` [compound 53, 2,2′,2″-(10-((14R,16R)-22-(4-((1S,4R,Z)-9-amino-4-((2,6-difluoro-4-hydroxybenzyl)carbamoyl)-1-(isoindolin-2-yl)-2,11,16-trioxo-3,8,10,12,15-pentaazaoctadec-9-en-1-yl)phenoxy)-14,16-dihydroxy-2,7,10,18-tetraoxo-3,6,11,19-tetraazadocosyl)-1,4,7,10-tetraazacyclododecane-1,4,7-triyl)triacetic acid], with less than 0.01 µM.
